The record followed here is PMC10778704, “Comparative Analysis of Cyclization Techniques in Stapled Peptides: Structural Insights into Protein–Protein Interactions in a SARS-CoV-2 Spike RBD/hACE2 Model System” (International Journal of Molecular Sciences, 2023).

Bridge positions count the residues as written; N and C are the ends. Square brackets hold non-standard residues; d marks the D form. Peptide text beside a SMILES is read from it. S5 = C=CCCC[C@](C)(N)C(=O)O

The subject of this experiment is SARS-CoV-2 pseudovirus. Particulars: 48 h, 735 μM.

With `CC(=O)N[C@@H](Cc1c[nH]cn1)C(=O)N[C@@H](CCC(=O)O)C(=O)N[C@H]1CCCCNC(=O)C[C@@H](C(=O)N[C@@H](Cc2ccc(O)cc2)C(=O)N[C@@H](CCC(N)=O)C(N)=O)NC(=O)[C@H](CC(C)C)NC(=O)[C@H](CC(=O)O)NC(=O)[C@H](CCC(=O)O)NC1=O` [peptide 4, Ac-NH-His-Glu-[Lys-Glu-Asp-Leu-Asp]-Tyr-Gln-CO-NH2] (Ac-HEKEDLDYQ-NH2; lactam 3-7), the “Inhibition of the pseudovirus” value stood at 48%.
In the case of `CC(=O)N[C@@H](Cc1c[nH]cn1)C(=O)N[C@@H](CCC(=O)O)C(=O)N[C@@]1(C)CCC/C=C/CCC[C@@](C)(C(=O)N[C@@H](Cc2ccc(O)cc2)C(=O)N[C@@H](CCC(N)=O)C(N)=O)NC(=O)[C@H](CC(C)C)NC(=O)[C@H](CC(=O)O)NC(=O)[C@H](CCC(=O)O)NC1=O` [peptide 11, Ac-NH-His-Glu-[S5-Glu-Asp-Leu-S5]-Tyr-Gln-CO-NH2] (Ac-HE[S5]EDL[S5]YQ-NH2; staple (E) 3-7), the “Inhibition of the pseudovirus” value came to 68%.
